The target in this experiment is T1, DPP4 (Homo sapiens, UniProt P27487).
T1 construct: purchased Sigma
Description: DPPIV-Glo Protease Assay (DPP4 protease inhibition assay). Format: biochemical. To be noted: in vitro. How it is done: At the same time, the inhibitory effect of other compounds present in tea such as epigallocatechin, epicatechin gallate, epicatechin, and catechin on DPP4 activity was also determined. […] Epigallocatechin, epicatechin gallate, epicatechin, and catechin were obtained from bidepharm (Shanghai, China). Half maximal inhibitory concentration (IC50) values were determined by nonlinear regression in GraphPad Prism 6 software.

T1 sequence (P27487 whole entry): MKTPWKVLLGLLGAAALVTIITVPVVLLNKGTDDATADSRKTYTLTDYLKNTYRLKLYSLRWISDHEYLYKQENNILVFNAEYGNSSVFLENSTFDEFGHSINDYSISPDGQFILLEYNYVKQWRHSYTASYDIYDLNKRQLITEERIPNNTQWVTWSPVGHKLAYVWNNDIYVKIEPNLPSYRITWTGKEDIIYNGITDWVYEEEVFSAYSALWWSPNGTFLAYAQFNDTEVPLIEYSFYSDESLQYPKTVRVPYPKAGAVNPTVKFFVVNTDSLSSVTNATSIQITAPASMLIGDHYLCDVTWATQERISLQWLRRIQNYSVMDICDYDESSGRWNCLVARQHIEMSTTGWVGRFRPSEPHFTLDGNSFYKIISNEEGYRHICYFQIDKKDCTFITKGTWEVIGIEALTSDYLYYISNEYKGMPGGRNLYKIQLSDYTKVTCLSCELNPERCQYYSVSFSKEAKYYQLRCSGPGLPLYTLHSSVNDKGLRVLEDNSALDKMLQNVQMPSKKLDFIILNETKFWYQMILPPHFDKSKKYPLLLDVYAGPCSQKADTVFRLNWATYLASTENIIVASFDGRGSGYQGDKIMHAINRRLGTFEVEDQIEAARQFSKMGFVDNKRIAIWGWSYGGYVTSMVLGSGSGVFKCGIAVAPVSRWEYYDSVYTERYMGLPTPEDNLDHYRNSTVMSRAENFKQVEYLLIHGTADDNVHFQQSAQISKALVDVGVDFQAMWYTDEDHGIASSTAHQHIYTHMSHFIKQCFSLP

Molecule `Oc1cc(O)c2c(c1)O[C@H](c1ccc(O)c(O)c1)[C@H](O)C2` [epicatechin] registered an IC50 of 281 µM.
`O=C(O[C@@H]1Cc2c(O)cc(O)cc2O[C@@H]1c1ccc(O)c(O)c1)c1cc(O)c(O)c(O)c1` [epicatechin gallate] displayed a half-inhibitory concentration (IC50) of 107 µM.
With `Oc1cc(O)c2c(c1)O[C@H](c1ccc(O)c(O)c1)[C@@H](O)C2` [catechin], half-maximal inhibition (IC50) required 381 µM.
`O=C(OC1Cc2c(O)cc(O)cc2OC1c1cc(O)c(O)c(O)c1)c1cc(O)c(O)c(O)c1` (centres unmarked) [EGCG, Epigallocatechin-3-gallate] registered an IC50 of 28.4 µM.
`Oc1cc(O)c2c(c1)O[C@H](c1cc(O)c(O)c(O)c1)[C@H](O)C2` [epigallocatechin] yielded a 50% inhibitory concentration (IC50) of 567 µM.

As usually defined, the IC50 is the midpoint of a concentration-inhibition curve. A high value points to weaker potency.

Source of the values: publication PMC7036097 (BioMed Research International, 2020).
